≈ marks a conversion by molar mass, not a printed value.
Details: buffer; pH 7.4; 200.0 µM

| SMILES | solubility kinetic [µg/mL] |
| --- | --- |
| N#C/C(=C\c1ccccn1)c1ccccn1 | > 31.1 |
| O=C(NC1C2CC3CC(C2)CC1C3)C1CCCCC1 (stereo not drawn) | 1.6 (≈ 6.12 µM) |
| NC(=O)NC(CC(=O)N1CCc2ccccc2C1)c1ccc(Cl)cc1 (stereo not drawn) | 49.9 (≈ 139 µM) |
| CCC(=O)Nc1ccc(NC(=S)NC(=O)/C=C/c2ccco2)cc1 | 3 (≈ 8.74 µM) |
| CC1CC(OC(=O)c2ccccc2)(c2ccccc2)C(C)CN1C (stereo not drawn) | > 48.5 |
| Cn1c2ccccc2c2cc([N+](=O)[O-])ccc21 | < 0.2 |
| COC(=O)c1c(-c2c(Cl)cccc2Cl)noc1NC(=O)N(C)C | 49.3 (≈ 138 µM) |
| CCOc1ccc(C)cc1S(=O)(=O)n1cnc2ccccc21 | 1 (≈ 3.16 µM) |
| Cn1cccc1C(=O)NCC1CCCCC1 | 28 (≈ 127 µM) |
| O=C(CCc1c[nH]c2ccccc12)N1CCCCCCC1 | 17.9 (≈ 62.9 µM) |
| S=c1nc(-c2ccccc2)n(Cc2cccnc2)c2c1CCCC2 | > 50 |
| CCOc1ccc(S(=O)(=O)NCCC(=O)N2CCCN(C)CC2)cc1 | 50.4 (≈ 136 µM) |
| CC(/C=C1\SC(=S)N(CC(=O)O)C1=O)=C\c1ccccc1 | > 47.9 |
| CCn1c(C)cc(O)c(C(=O)Nc2cccc(Cl)c2)c1=O | < 0.3 |
| Cc1cccc(C)c1NC(=O)COC(=O)c1cc(S(=O)(=O)Nc2ccc(Cl)cc2)ccc1O | 11.5 (≈ 23.5 µM) |
| CC1CCc2sc3ncnc(N4CCN(C)CC4)c3c2C1 (stereo not drawn) | > 45.4 |
| CCOc1ccccc1NC(=O)CCn1ccnc1 | 37 (≈ 143 µM) |
| CCOC(=O)CNC(=O)Cc1ccc(OC)cc1 | > 37.7 |
| OCCN1c2ccccc2CCc2ccccc21 | 21.5 (≈ 89.8 µM) |
| CCC(=O)N/C(N)=N/c1nc(C)c2cc(C)c(C)cc2n1 | 11.6 (≈ 40.7 µM) |

| SMILES | solubility kinetic [µg/mL] |
| --- | --- |
| CC(=O)N1CCN=C1SCc1cccc(Cl)c1 | > 40.3 |
| Cn1c(=O)n(CC(=O)O)c(=O)c2c1nc1n2CCCN1Cc1ccccc1 | 51.3 (≈ 139 µM) |
| O=C(COC(=O)c1cccc(OC(F)F)c1)Nc1cccc(S(=O)(=O)N2CCCC2)c1 | 10.9 (≈ 24 µM) |
| CCOn1c(=O)c(-c2ccc(Br)cc2)[n+]([O-])c2ccccc21 | 1.3 (≈ 3.6 µM) |
| N#C/C(=C/c1cccc([N+](=O)[O-])c1)C(=O)Nc1ccccc1O | 10.7 (≈ 34.6 µM) |
| C/C(=C\c1ccccc1)CN1CCN(Cc2ccc(C)o2)C(CCO)C1 (stereo not drawn) | 42.2 (≈ 119 µM) |
| COc1ccc(NC(=O)C(=O)Nc2cccc3cccnc23)cc1OC | < 0.3 |
| O=C(CNC(=O)C1CC1)Nc1ccc(F)c(F)c1F | > 40.8 |
| CCCOc1ccc(/C=C2/C(=O)ON=C2C)cc1OCC | 36.8 (≈ 127 µM) |
| COc1ccccc1C(=O)NCCCNC(=O)c1ccccn1 | > 47 |
| CN1CCN(S(=O)(=O)Cc2ccccc2Cl)CC1 | > 43.3 |
| CNc1nc2c(c(=O)[nH]c(=O)n2C)n1CCCc1ccccc1 | > 47 |
| N/C(=N\O)c1ccncc1 | > 20.6 |
| CC(=O)Nc1ccc(NC(=S)NC(=O)C2CCCC2)cc1 | > 45.8 |
| COc1cccc(OCC(=O)NC2CCS(=O)(=O)C2)c1 (stereo not drawn) | > 44.9 |
| O=C(OCC(=O)N1CCc2ccccc2C1)c1ccc(O)cc1 | 4.5 (≈ 14.5 µM) |
| CCNC(=O)c1ccccc1CCc1ccccc1 | 32.7 (≈ 129 µM) |
| Cc1ccc(OCC(=O)NCCNC(=O)c2ccncc2)cc1C | > 49.1 |
| O=C(COC(=O)COc1ccc(Br)cc1)NCc1ccc2c(c1)OCO2 | 8.4 (≈ 19.9 µM) |
| Cc1cc(CSc2nc(C)cc(=O)[nH]2)c2ncccc2c1 | 8.7 (≈ 29.3 µM) |

| SMILES | solubility kinetic [µg/mL] |
| --- | --- |
| Cc1cc(NC(=O)c2cccs2)ncc1NC(=O)C(C)(C)C | 38.6 (≈ 122 µM) |
| Brc1ccc(-c2noc(-c3ccccn3)n2)o1 | 10.8 (≈ 37 µM) |
| CCOC(=O)Nc1ccc2c(c1)N(C(=O)CN)c1ccccc1CC2 | 36.6 (≈ 108 µM) |
| CN(C)c1ccc(/C=C/C(=O)c2ccc3c(c2)OCO3)cc1 | 2.9 (≈ 9.82 µM) |
| O=C1CCN(C(=O)CCCn2c(=O)oc3ccccc32)CC1 | > 45.3 |
| CC1(C)CC(=O)C(C(N)=NC(=O)c2ccc([N+](=O)[O-])cc2)=C(O)C1 | 0.7 (≈ 2.11 µM) |
| CCC(=O)N1c2ccccc2C(N(C(=O)CC)c2ccccc2)CC1C (stereo not drawn) | > 52.6 |
| Cn1c(=O)c2c(nc(N3CCc4ccccc4C3)n2C)n(C)c1=O | 43.2 (≈ 133 µM) |
| Cc1ccc(NC(=O)CC(=O)Nc2ccc(C)cc2C)c(C)c1 | 6.3 (≈ 20.3 µM) |
| CCn1c(=O)c2sccc2n(CC(=O)NC2CCCC2)c1=O | 45.4 (≈ 141 µM) |
| C=CCn1c(O)c(C=NCCCn2ccnc2)c(=O)[nH]c1=O | > 45.5 |
| Cc1cc(C)c(C)c(S(=O)(=O)N(C)CCc2ccccn2)c1C | > 49.9 |
| CCN(C(=O)c1ccc2c(c1)OCO2)C1CCS(=O)(=O)C1 (stereo not drawn) | > 46.7 |
| O=C(NC(=S)Nc1ccc2[nH]c(=O)[nH]c2c1)c1ccccc1F | 1.1 (≈ 3.33 µM) |
| CC1CC(=O)Nc2ccccc2N1C(=O)CSc1ccc2ccccc2n1 (stereo not drawn) | > 56.6 |
| CC1(C)CC2(CCO1)OC(=O)CC2C(=O)Nc1ccc(Cl)cc1[N+](=O)[O-] (stereo not drawn) | > 57.4 |
| COc1cc(NC(=O)COC(=O)c2[nH]c(C)c(C(C)=O)c2C)cc(OC)c1 | 4 (≈ 10.7 µM) |
| O=[N+]([O-])c1cccc(-c2csc(CS(=O)(=O)Cc3ccco3)n2)c1 | 0.6 (≈ 1.65 µM) |

Reference: PubChem BioAssay AID1996
